Paper PMC12002112, “NMR Solution Structure of the N‐Terminal GSPII Domain from the Thermus Thermophilus Traffic ATPase PilF and Reconstruction of its c‐di‐GMP Binding Capability” (Chembiochem, 2025)
Values joined by “and” are separate entries in the source; they are usually repeats but may differ in a detail not shown here. Equal entries are not always repeated.

Assays:
[1] = molecular target: T1, PilF1–65 F63Y H33Q S39R A41G I55L I59L R62Q (PilF1–65 F63Y mut6) (Thermus thermophilus, UniProt Q5SLC9, A41G/F63Y/H33Q/I55L/I59L/R62Q/S39R); assay: NMR titration with c‐di‐GMP, PilF1–65 F63Y mut6; format: binding; conditions: high excess of ligand (10fold), 20 °C
T1 sequence (Q5SLC9 1-65 H33Q/S39R/A41G/I55L/I59L/R62Q/F63Y): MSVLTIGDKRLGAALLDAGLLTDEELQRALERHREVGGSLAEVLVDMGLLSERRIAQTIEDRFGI
Method: (§1) For NMR experiments, all PilF1–154, PilF1–65 and PilF9–65 samples were prepared in a buffer containing 50 mM BisTris‐HCl pH 5.8, 200 mM NaCl, 1 mM β‐mercaptoethanol with the addition of 5 % (v/v) D2O. 200 μM 2,2‐dimethyl‐2‐silapentane‐5‐sulfonic acid (DSS) was used to directly reference the ^1H chemical shifts internally. With the appropriate conversion factors, the heteronuclear ^13C, ^15N and ^31P chemical shifts were referenced indirectly.[73] All spectra were processed and referenced with Bruker TopSpin™ versions 3.5 and 4.0.7. Chemical shifts were assigned in CARA.[74] NMR‐spectra were acquired on Bruker AVANCE 600, 700, 800, 900 and 950 MHz spectrometers equipped with cryogenic triple resonance probes at 45 °C for PilF1–154 constructs and at 20 °C for the PilF1–65 and the PilF9–65 constructs.
(§2) NMR titration experiments were carried out as ligand binding assays with uniformly ^15N labeled protein samples from 50 μM to 100 μM and unlabeled c‐di‐GMP. A series of ^15N‐HSQC, ^1H,^15N‐SOFAST‐HMQC or ^15N‐BEST‐TROSY‐HSQC spectra were recorded with increasing c‐di‐GMP concentrations (up to 1.4 mM) and chemical shift changes were evaluated with TopSpin™ 4.0.7.

[2] = molecular target: T2, PilF9–65 F63Y H33Q S39R A41G R62Q (Thermus thermophilus, UniProt Q5SLC9, A41G/F63Y/H33Q/R62Q/S39R); assay: ITC c‐di‐GMP binding, PilF9–65 F63Y H33Q S39R A41G R62Q; conditions: 20 °C
T2 sequence (Q5SLC9 9-65 H33Q/S39R/A41G/R62Q/F63Y): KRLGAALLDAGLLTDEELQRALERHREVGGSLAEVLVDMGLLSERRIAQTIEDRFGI
Method: (§3) The c‐di‐GMP binding capabilities of the various PilF1–154, PilF1–65 and PilF9–65 constructs were characterized by isothermal titration calorimetry (ITC) measurements in three independent titrations for each construct with detectable binding to c‐di‐GMP. All ITC‐measurements were carried out in 50 mM Tris‐HCl pH 7.5, 200 mM sodium chloride, 1 mM β‐mercaptoethanol at 20 °C using a MicroCal iTC200 instrument (Malvern Pananalytical, UK). In total 40 μl c‐di‐GMP was titrated to 270 μl protein after an initial delay of 120 s in 20 injections while stirring the sample with 750 rpm. The first injection of 0.2 μl c‐di‐GMP in 0.4 s was followed by 19 successive injections of 2 μl in 4 s separated by a 180 s delay using a reference power of 11 μcal^−1. The feedback mode was set to high. Protein and c‐di‐GMP concentrations ranged from 30 μM to 100 μM and 300 μM to 1000 μM, respectively, and were adjusted to the respective binding affinities of the corresponding constructs to optimize measurement precision. Processing of the thermograms was carried out with Origin 7.0 (OriginLab) using a one‐site binding model. An overview of all ITC measurements is given in Supplementary Table 1.

PilF1–154 = assay: NMR titration with c‐di‐GMP, PilF1–154; format: binding, Thermus thermophilus; conditions: 10 equivalents of c‐di‐GMP, 45 °C
Method: as §1, §2

[3] = molecular target: T3, PilF1–889 (full‐length PilF) (Thermus thermophilus, UniProt Q5SLC9); assay: ITC c‐di‐GMP binding, full‐length PilF; conditions: 20 °C
T3 sequence (Q5SLC9 1-889): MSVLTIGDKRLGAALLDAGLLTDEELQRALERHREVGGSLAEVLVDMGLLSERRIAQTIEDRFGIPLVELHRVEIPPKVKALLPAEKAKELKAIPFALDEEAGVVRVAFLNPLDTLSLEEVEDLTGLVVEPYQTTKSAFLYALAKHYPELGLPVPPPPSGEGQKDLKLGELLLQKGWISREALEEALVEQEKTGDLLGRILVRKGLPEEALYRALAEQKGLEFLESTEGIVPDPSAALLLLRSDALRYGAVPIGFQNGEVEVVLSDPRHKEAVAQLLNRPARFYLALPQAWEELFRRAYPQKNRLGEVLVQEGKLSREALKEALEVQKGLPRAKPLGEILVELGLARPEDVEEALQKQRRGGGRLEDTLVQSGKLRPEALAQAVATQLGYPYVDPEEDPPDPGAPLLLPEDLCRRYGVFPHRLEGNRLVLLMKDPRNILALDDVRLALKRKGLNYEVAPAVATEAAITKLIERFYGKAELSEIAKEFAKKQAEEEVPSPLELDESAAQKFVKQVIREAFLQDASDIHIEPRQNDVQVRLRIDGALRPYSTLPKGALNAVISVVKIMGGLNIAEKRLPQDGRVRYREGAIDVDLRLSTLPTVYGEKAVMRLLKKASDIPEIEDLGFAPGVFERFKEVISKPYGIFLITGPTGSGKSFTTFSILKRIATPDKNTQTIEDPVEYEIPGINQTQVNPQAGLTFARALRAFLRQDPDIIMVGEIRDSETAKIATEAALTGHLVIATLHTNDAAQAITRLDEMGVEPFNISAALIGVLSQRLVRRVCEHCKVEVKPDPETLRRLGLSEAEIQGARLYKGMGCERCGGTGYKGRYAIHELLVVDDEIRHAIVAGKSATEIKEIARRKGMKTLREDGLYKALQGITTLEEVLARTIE

PilF1–65 F63Y [4] = assay: NMR titration with c‐di‐GMP, PilF1–65 F63Y; format: binding, Thermus thermophilus
Method: as §1, §2

MshEN = molecular target: MshEN; set-up: method as in PMID 27578558; conditions: monomeric c‐di‐GMP; read-out: KD (affinity) for MshEN; cited from earlier work
[5] = molecular target: T4, PilF9–65 F63Y H33Q S39R A41G I55L I59L R62Q (PilF9–65 F63Y mut6) (Thermus thermophilus, UniProt Q5SLC9, A41G/F63Y/H33Q/I55L/I59L/R62Q/S39R); assay: ITC c‐di‐GMP binding, PilF9–65 F63Y mut6
T4 sequence (Q5SLC9 9-65 H33Q/S39R/A41G/I55L/I59L/R62Q/F63Y): T2 sequence (Q5SLC9 9-65 H33Q/S39R/A41G/R62Q/F63Y)
Method: as §3

PilF1–65 F63Y [6] = assay: ITC c‐di‐GMP binding, N‐terminal subdomain; set-up: species or system Thermus thermophilus
Method: as §3

[7] = tested on: PilF1–154 H33Q S39R A41G I55L I59L R62Q; assay: NMR titration with c‐di‐GMP, MshEN‐like PilF1–154 construct; format: binding, Thermus thermophilus; conditions: 15 equivalents of c‐di‐GMP
Method: as §1, §2

PilF1–154 (GSPII‐A) = assay: ITC c‐di‐GMP binding, isolated GSPII‐A domain; set-up: species or system Thermus thermophilus; conditions: isolated PilF1–154
Method: as §3

PilF9–65 F63Y H33Q R62Q = assay: ITC c‐di‐GMP binding, PilF9–65 F63Y H33Q R62Q; set-up: species or system Thermus thermophilus; conditions: S39 reintroduced
Method: as §3

[8] = molecular target: T5, PilF9–65 F63Y H33Q S39R R62Q (Thermus thermophilus, UniProt Q5SLC9, F63Y/H33Q/R62Q/S39R); assay: ITC c‐di‐GMP binding, PilF9–65 F63Y H33Q S39R R62Q; conditions: 20 °C
T5 sequence (Q5SLC9 9-65 H33Q/S39R/R62Q/F63Y): T2 sequence (Q5SLC9 9-65 H33Q/S39R/A41G/R62Q/F63Y)
Method: as §3

[9] = molecular target: T5, PilF9–65 F63Y H33Q S39R R62Q; assay: NMR titration with c‐di‐GMP, PilF9–65 F63Y H33Q S39R R62Q; format: binding; conditions: high excess of the ligand (15fold), 20 °C
Method: as §1, §2

[10] = molecular target: T1, PilF1–65 F63Y H33Q S39R A41G I55L I59L R62Q (PilF1–65 F63Y mut6); assay: ITC c‐di‐GMP binding, PilF1–65 F63Y mut6
Method: as §3

In the case of `Nc1nc2c(ncn2C2OC3COP(=O)(O)OC4C(COP(=O)(O)OC3C2O)OC(n2cnc3c(=O)[nH]c(N)nc32)C4O)c(=O)[nH]1` (centres unmarked) [c‐di‐GMP, 3’→5’ cyclic dimeric guanosine monophosphate], the “chemical shift changes on adding c‐di‐GMP” value [1] is reported as “large chemical shift changes”, the N [2] is reported as 0.8 ± 0.1 and the ΔH [2] is reported as -10.127 ± 0.499 kcal/mol. For the same compound, the ΔS [2] was -6.4 ± 1.7 cal/mol/deg, the Kd ([2]; pH 7.5, PilF9–65 F63Y H33Q S39R A41G R62Q) was 1800 ± 300 nM and the “chemical shift changes on adding c‐di‐GMP” value (PilF1–154) was “does not cause any chemical shift changes”. The “ΔH (binding event 1)” value ([3]; event 1) was -11.763 ± 0.78 kcal/mol, the “ΔS (binding event 1)” value ([3]; event 1) was -10.4 ± 2.7 cal/mol/deg and the “ΔH (binding event 2)” value ([3]; event 2) was -15.683 ± 0.97 kcal/mol. The “ΔS (binding event 2)” value ([3]; event 2) was -16.5 ± 2.2 cal/mol/deg, the Kd ([3]; pH 7.5, PilF1–889, binding event 1, read-out: KD1 (first binding event)) was 324 nM and the “N (binding event 1)” value ([3]; stoichiometry, event 1) was 0.72 ± 0.1. For the same compound, the “N (binding event 2)” value ([3]; stoichiometry, event 2) was 0.59 ± 0.03, the “c‐di‐GMP binding in NMR titration” value (PilF1–65 F63Y [4]) was “not detectable” and the Kd (MshEN) was 500 nM and ~500 nM. It also gave an N ([5]; ITC, 20 °C) of 1.2 ± 0.1, a ΔH ([5]; ITC, 20 °C) of -12.953 ± 0.441 kcal/mol and a ΔS ([5]; ITC, 20 °C) of -17.9 ± 1.4 cal/mol/deg. For the same compound, the Kd ([5]; ITC, 20 °C, pH 7.5, PilF9–65 F63Y mut6) was 695 ± 42 nM, the “difference in the free energy of binding vs PilF1–65 F63Y mut6” value ([5]; at 20° C) was 1.6 kcal/mol and the “c‐di‐GMP binding in ITC” value (PilF1–65 F63Y [6]) was “not detectable”. For the same compound, the “c‐di‐GMP binding in NMR‐titration” value [7] was “no c‐di‐GMP binding”, the “c‐di‐GMP binding in ITC” value (PilF1–154 (GSPII‐A)) was “did not show any sign of c‐di‐GMP binding” and the “c‐di‐GMP binding activity in ITC” value (PilF9–65 F63Y H33Q R62Q) was “complete loss of c‐di‐GMP binding activity”. The N [8] was 0.7 ± 0.1, the ΔH [8] was -9.574 ± 0.243 kcal/mol and the ΔS [8] was -3.6 ± 0.7 cal/mol/deg. The Kd ([8]; pH 7.5, PilF9–65 F63Y H33Q S39R R62Q) was 19000 ± 6000 nM, the “c‐di‐GMP binding in NMR titration” value [9] was “saturated ligand binding” and the N ([10]; ITC, 20 °C) was 0.6 ± 0.2. For the same compound, the ΔH ([10]; ITC, 20 °C) was -1.342 ± 0.513 kcal/mol, the ΔS ([10]; ITC, 20 °C) was 17.1 ± 2.3 cal/mol/deg and the Kd ([10]; ITC, 20 °C, pH 7.5, PilF1–65 F63Y mut6) was 13000 ± 2000 nM. The “difference in the free energy of binding vs MshEN” value ([10]; at 20° C) was ~ 1.9 kcal/mol and the “difference in the free energy of binding vs N‐terminal subdomain (residue 1–62) of MshEN” value ([10]; at 20° C) was ~2.3 kcal/mol.
